Results: US10206394B2, “Herbicidal compounds” (Syngenta Participations AG, priority 2014, dated 2019)
Like-named read-outs stand apart in the source and are kept apart here.

Assays:
Assay in all cases: Glasshouse assay for herbicidal activity (pre- and post-emergence), percentage phytotoxicity
Assay type in all cases: in vivo
[1] = test system: Alopecurus myosuroides (ALOMY); conditions: Alopecurus myosuroides
Outline: (§1)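 Pot-grown plants treated one day after sowing (pre-emergence) or at about 12 days (post-emergence); glasshouse at 24/18° C (warm) or 20/16° C (cool species) day/night, 16 h light, 65% humidity. Visual % phytotoxicity (0 = none, 100 = total damage) scored at 15 DAA post or 20 DAA pre.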

[2] = test system: Avena fatua (AVEFA); conditions: Avena fatua
Outline: as §1

[3] = test system: Echinochloa crus-galli (ECHCG); conditions: Echinochloa crus-galli
Outline: as §1

[4] = test system: Lolium perenne (LOLPE); conditions: Lolium perenne
Outline: as §1

[5] = post-emergence, 360 h, POST-emergence, rate 250 g/ha, visual score 15 DAA (100%=total damage, 0%=no damage), read-out: Post-emergence herbicidal activity (percentage phytotoxicity) ALOMY POST
[6] = pre-emergence, 480 h, PRE-emergence, rate 250 g/ha, visual score 20 DAA (100%=total damage, 0%=no damage), read-out: Pre-emergence herbicidal activity (percentage phytotoxicity) ALOMY PRE
[7] = post-emergence, 360 h, POST-emergence, rate 250 g/ha, visual score 15 DAA (100%=total damage, 0%=no damage), read-out: Post-emergence herbicidal activity (percentage phytotoxicity) AVEFA POST
[8] = pre-emergence, 480 h, PRE-emergence, rate 250 g/ha, visual score 20 DAA (100%=total damage, 0%=no damage), read-out: Pre-emergence herbicidal activity (percentage phytotoxicity) AVEFA PRE
[9] = post-emergence, 360 h, POST-emergence, rate 250 g/ha, visual score 15 DAA (100%=total damage, 0%=no damage), read-out: Post-emergence herbicidal activity (percentage phytotoxicity) ECHCG POST
[10] = pre-emergence, 480 h, PRE-emergence, rate 250 g/ha, visual score 20 DAA (100%=total damage, 0%=no damage), read-out: Pre-emergence herbicidal activity (percentage phytotoxicity) ECHCG PRE
[11] = post-emergence, 360 h, POST-emergence, rate 250 g/ha, visual score 15 DAA (100%=total damage, 0%=no damage), read-out: Post-emergence herbicidal activity (percentage phytotoxicity) LOLPE POST
[12] = pre-emergence, 480 h, PRE-emergence, rate 250 g/ha, visual score 20 DAA (100%=total damage, 0%=no damage), read-out: Pre-emergence herbicidal activity (percentage phytotoxicity) LOLPE PRE
[13] = post-emergence, 360 h, 250 g/ha, post-emergence, 15 DAA, visual assessment (100%=total damage, 0%=no damage), read-out: Post-emergence herbicidal activity (percentage phytotoxicity) ALOMY POST
[14] = pre-emergence, 480 h, 250 g/ha, pre-emergence, 20 DAA, visual assessment (100%=total damage, 0%=no damage), read-out: Pre-emergence herbicidal activity (percentage phytotoxicity) ALOMY PRE
[15] = post-emergence, 360 h, 250 g/ha, post-emergence, 15 DAA, visual assessment (100%=total damage, 0%=no damage), read-out: Post-emergence herbicidal activity (percentage phytotoxicity) AVEFA POST
[16] = pre-emergence, 480 h, 250 g/ha, pre-emergence, 20 DAA, visual assessment (100%=total damage, 0%=no damage), read-out: Pre-emergence herbicidal activity (percentage phytotoxicity) AVEFA PRE
[17] = post-emergence, 360 h, 250 g/ha, post-emergence, 15 DAA, visual assessment (100%=total damage, 0%=no damage), read-out: Post-emergence herbicidal activity (percentage phytotoxicity) ECHCG POST
[18] = pre-emergence, 480 h, 250 g/ha, pre-emergence, 20 DAA, visual assessment (100%=total damage, 0%=no damage), read-out: Pre-emergence herbicidal activity (percentage phytotoxicity) ECHCG PRE
[19] = post-emergence, 360 h, 250 g/ha, post-emergence, 15 DAA, visual assessment (100%=total damage, 0%=no damage), read-out: Post-emergence herbicidal activity (percentage phytotoxicity) LOLPE POST
[20] = pre-emergence, 480 h, 250 g/ha, pre-emergence, 20 DAA, visual assessment (100%=total damage, 0%=no damage), read-out: Pre-emergence herbicidal activity (percentage phytotoxicity) LOLPE PRE
[21] = post-emergence, 360 h, Rate 250 g/ha, post-emergence, visual assessment 15 DAA, 100%=total damage, 0%=no damage, read-out: Post-emergence herbicidal activity (percentage phytotoxicity) ALOMY POST
[22] = pre-emergence, 480 h, Rate 250 g/ha, pre-emergence, visual assessment 20 DAA, 100%=total damage, 0%=no damage, read-out: Pre-emergence herbicidal activity (percentage phytotoxicity) ALOMY PRE
[23] = post-emergence, 360 h, Rate 250 g/ha, post-emergence, visual assessment 15 DAA, 100%=total damage, 0%=no damage, read-out: Post-emergence herbicidal activity (percentage phytotoxicity) AVEFA POST
[24] = pre-emergence, 480 h, Rate 250 g/ha, pre-emergence, visual assessment 20 DAA, 100%=total damage, 0%=no damage, read-out: Pre-emergence herbicidal activity (percentage phytotoxicity) AVEFA PRE
[25] = post-emergence, 360 h, Rate 250 g/ha, post-emergence, visual assessment 15 DAA, 100%=total damage, 0%=no damage, read-out: Post-emergence herbicidal activity (percentage phytotoxicity) ECHCG POST
[26] = pre-emergence, 480 h, Rate 250 g/ha, pre-emergence, visual assessment 20 DAA, 100%=total damage, 0%=no damage, read-out: Pre-emergence herbicidal activity (percentage phytotoxicity) ECHCG PRE
[27] = post-emergence, 360 h, Rate 250 g/ha, post-emergence, visual assessment 15 DAA, 100%=total damage, 0%=no damage, read-out: Post-emergence herbicidal activity (percentage phytotoxicity) LOLPE POST
[28] = pre-emergence, 480 h, Rate 250 g/ha, pre-emergence, visual assessment 20 DAA, 100%=total damage, 0%=no damage, read-out: Pre-emergence herbicidal activity (percentage phytotoxicity) LOLPE PRE

Row | Compound | pest or weed control at 250 g/ha [1, 5] | pest or weed control at 250 g/ha [1, 6] | pest or weed control at 250 g/ha [2, 7] | pest or weed control at 250 g/ha [2, 8] | pest or weed control at 250 g/ha [3, 9] | pest or weed control at 250 g/ha [3, 10] | pest or weed control at 250 g/ha [4, 11] | pest or weed control at 250 g/ha [4, 12] | pest or weed control at 250 g/ha [1, 13] | pest or weed control at 250 g/ha [1, 14] | pest or weed control at 250 g/ha [2, 15] | pest or weed control at 250 g/ha [2, 16] | pest or weed control at 250 g/ha [3, 17] | pest or weed control at 250 g/ha [3, 18] | pest or weed control at 250 g/ha [4, 19] | pest or weed control at 250 g/ha [4, 20] | further results
1 | C=CCNC(=O)CC1CC(=O)C(c2c(C)cc(OCC(F)(F)F)cc2C)C1=O (stereo not drawn) [Compound B209] | 90% | 100% | 80% | 80% | 100% | 100% | 80% | 90% |  |  |  |  |  |  |  |  | 
2 | COCC(C)NC(=O)CC1CC(=O)C(c2c(C)cc(-c3ncc(F)cn3)cc2C)C1=O (stereo not drawn) [Compound B332] | 100% | 100% | 100% | 100% | 100% | 100% | 100% | 100% |  |  |  |  |  |  |  |  | 
3 | C=CCNC(=O)CC1CC(=O)C(c2c(C)cc(-n3cc(Cl)cn3)cc2C)C1=O (stereo not drawn) [Compound B226] | 100% | 100% | 90% | 90% | 100% | 100% | 90% | 80% |  |  |  |  |  |  |  |  | 
4 | Cc1cc(C)c(C2C(=O)CC(CC(=O)NC(C)(C)C#N)C2=O)c(C)c1 (stereo not drawn) [Compound B43] |  |  |  |  |  |  |  |  | 80% | 70% | 80% | 30% | 60% | 40% | 80% | 60% | 
5 | CCc1cc(-n2cc(Cl)cn2)cc(C)c1C1C(=O)CC(CC(=O)NC(C)(C)C)C1=O (stereo not drawn) [Compound B135] |  |  |  |  |  |  |  |  | 100% | 100% | 100% | 90% | 100% | 100% | 100% | 100% | 
6 | Cc1cc(-c2ncc(Cl)cc2C#N)cc(C)c1C1C(=O)CC(CC(=O)NC(C)(C)C)C1=O (stereo not drawn) [Compound B48] |  |  |  |  |  |  |  |  | 80% | 90% | 80% | 30% | 100% | 90% | 90% | 80% | 
7 | C=Cc1cc(-c2ncc(F)cn2)cc(C)c1C1C(=O)CC(CC(=O)NC(C)(C)C)C1=O (stereo not drawn) [Compound B404] |  |  |  |  |  |  |  |  |  |  |  |  |  |  |  |  | pest or weed control at 250 g/ha [1, 21]: 90%; pest or weed control at 250 g/ha [1, 22]: 80%; pest or weed control at 250 g/ha [2, 23]: 100%; pest or weed control at 250 g/ha [2, 24]: 70%; pest or weed control at 250 g/ha [3, 25]: 100%; pest or weed control at 250 g/ha [3, 26]: 90%; pest or weed control at 250 g/ha [4, 27]: 100%; pest or weed control at 250 g/ha [4, 28]: 80%
8 | C#CCNC(=O)CC1CC(=O)C(c2c(C)cccc2CC)C1=O (stereo not drawn) [Compound B151] |  |  |  |  |  |  |  |  | 100% | 100% | 100% | 90% | 100% | 100% | 90% | 90% | 
9 | Cc1cc(-c2ccc(Cl)cn2)cc(C)c1C1C(=O)CC(CC(=O)NCc2cccc(Cl)c2)C1=O (stereo not drawn) [Compound B374] |  |  |  |  |  |  |  |  |  |  |  |  |  |  |  |  | pest or weed control at 250 g/ha [1, 21]: 90%; pest or weed control at 250 g/ha [1, 22]: 70%; pest or weed control at 250 g/ha [2, 23]: 100%; pest or weed control at 250 g/ha [2, 24]: 90%; pest or weed control at 250 g/ha [3, 25]: 100%; pest or weed control at 250 g/ha [3, 26]: 90%; pest or weed control at 250 g/ha [4, 27]: 90%; pest or weed control at 250 g/ha [4, 28]: 90%
10 | CCc1cc(C)cc(C)c1C1C(=O)CC(CC(=O)N(C)C(C)(C)C)C1=O (stereo not drawn) [Compound B259] | 100% | 100% | 100% | 90% | 100% | 100% | 100% | 100% |  |  |  |  |  |  |  |  | 
11 | C/C=C/c1cc(C)c(C2C(=O)CC(CC(=O)N(C)CC)C2=O)c(CC)c1 (stereo not drawn) [Compound B194] | 100% | 100% | 100% | 80% | 100% | 90% | 100% | 100% |  |  |  |  |  |  |  |  | 
12 | Cc1cc(C)c(C2C(=O)CC(C(C)C(=O)NC(C)(C)C)C2=O)c(C)c1 (stereo not drawn) [Compound A164] |  |  |  |  |  |  |  |  |  |  |  |  |  |  |  |  | pest or weed control at 250 g/ha ([1]; post-emergence, 360 h, Rate 250 g/ha, post-emergence, assessed visually 15 DAA, 100%=total damage, 0%=no damage, read-out: Post-emergence herbicidal activity (percentage phytotoxicity) ALOMY POST): 70%; pest or weed control at 250 g/ha ([1]; pre-emergence, 480 h, Rate 250 g/ha, pre-emergence, assessed visually 20 DAA, 100%=total damage, 0%=no damage, read-out: Pre-emergence herbicidal activity (percentage phytotoxicity) ALOMY PRE): 70%; pest or weed control at 250 g/ha ([2]; post-emergence, 360 h, Rate 250 g/ha, post-emergence, assessed visually 15 DAA, 100%=total damage, 0%=no damage, read-out: Post-emergence herbicidal activity (percentage phytotoxicity) AVEFA POST): 70%; pest or weed control at 250 g/ha ([2]; pre-emergence, 480 h, Rate 250 g/ha, pre-emergence, assessed visually 20 DAA, 100%=total damage, 0%=no damage, read-out: Pre-emergence herbicidal activity (percentage phytotoxicity) AVEFA PRE): 10%; pest or weed control at 250 g/ha ([3]; post-emergence, 360 h, Rate 250 g/ha, post-emergence, assessed visually 15 DAA, 100%=total damage, 0%=no damage, read-out: Post-emergence herbicidal activity (percentage phytotoxicity) ECHCG POST): 70%; pest or weed control at 250 g/ha ([3]; pre-emergence, 480 h, Rate 250 g/ha, pre-emergence, assessed visually 20 DAA, 100%=total damage, 0%=no damage, read-out: Pre-emergence herbicidal activity (percentage phytotoxicity) ECHCG PRE): 70%; pest or weed control at 250 g/ha ([4]; post-emergence, 360 h, Rate 250 g/ha, post-emergence, assessed visually 15 DAA, 100%=total damage, 0%=no damage, read-out: Post-emergence herbicidal activity (percentage phytotoxicity) LOLPE POST): 60%; pest or weed control at 250 g/ha ([4]; pre-emergence, 480 h, Rate 250 g/ha, pre-emergence, assessed visually 20 DAA, 100%=total damage, 0%=no damage, read-out: Pre-emergence herbicidal activity (percentage phytotoxicity) LOLPE PRE): 60%
